Data published in patent EP0018155A2, “Novel cephalosporin compounds, a process for the preparation thereof, pharmaceutical compositions containing the same and the use thereof as a therapeutic agent against a microorganism” (NOVO NORDISK A/S, priority 1979, dated 1980).
≈ marks a conversion by molar mass, not a printed value. Like-named read-outs stand apart in the source and are kept apart here. Values belong to the molecule of their own block, whether it stands above or below them.

Tests used:
Format in all cases: cell-based
K. edwardsii K1 = assay: agar serial dilution test (MIC)
Method: (§1) The antibiotic activity in vitro of some compounds according to the invention and of some previously known compounds was tested by means of an agar serial dilution test. The following compounds were tested: 7β-[2-(2-Aminothiazol-4-yl)-2-diethylphosphoryloxyiminoacetamido] cephalosporanic acid (designated ES 643, 7β-[2-(2-amino- thiazol-4-yl)-2-dimethylphosphoryloxyiminoacetamido] cephalosporanic acid (designated ES 671), 7β-[2-(2-amino- thiazol-4-yl)-2-dimorpholinophosphoryloxyiminoacetamido] cephalosporanic acid (designated ES 656), 7β-[2-(2-amino- thiazol-4-yl)-2-methylmethylphosphonyloxyiminoacetamido] cephalosporanic acid (designated ES 682), 7β-[2-(2-amino- thiazol-4-yl)-2-hydroxyiminoacetamido] cephalosporanic acid (designated A), cefuroxime (designated B), and cephalotin (designated C). MIC designates minimum inhibitory concentration.

S. pyogenes 12334 = assay: agar serial dilution test (MIC)
Method: as §1

S. albus 12228 = assay: agar serial dilution test (MIC)
Method: as §1

P. vulgaris 5209 = assay: agar serial dilution test (MIC)
Method: as §1

S. aureus 3356 = assay: agar serial dilution test (MIC)
Method: as §1

E. coli 01 = assay: agar serial dilution test (MIC)
Method: as §1

E. coli 04 = assay: agar serial dilution test (MIC)
Method: as §1

S. aureus 13709 = assay: agar serial dilution test (MIC)
Method: as §1

S. albus 3348 = assay: agar serial dilution test (MIC)
Method: as §1

K. pneumoniae K8 = assay: agar serial dilution test (MIC); details: Klebsiella pneumoniae
Method: as §1

P. mirabilis 2311 = assay: agar serial dilution test (MIC)
Method: as §1

P. mirabilis 682 = assay: agar serial dilution test (MIC)
Method: as §1

S. albus 3578 = assay: agar serial dilution test (MIC)
Method: as §1

P. mirabilis 2255 = assay: agar serial dilution test (MIC)
Method: as §1

P. vulgaris 17028 = assay: agar serial dilution test (MIC)
Method: as §1

P. vulgaris 16868 = assay: agar serial dilution test (MIC)
Method: as §1

S. pyogenes 12384 = assay: agar serial dilution test (MIC)
Method: as §1

P. morganii 69 = assay: agar serial dilution test (MIC)
Method: as §1

P. morganii 18 = assay: agar serial dilution test (MIC)
Method: as §1

S. aureus 3349 = assay: agar serial dilution test (MIC)
Method: as §1

S. aureus 209P = assay: agar serial dilution test (MIC); details: Staphylococcus aureus
Method: as §1

P. vulgaris ATCC 6897 = assay: MIC value stated in Example 8; details: Proteus vulgaris, ATCC6897; against P. vulgaris ATCC 6897
[1] = Streptococcus pyogenes, 12334, read-out: MIC value in μg/ml
[2] = Staphylococcus albus, 12228, read-out: MIC value in μg/ml
[3] = Proteus vulgaris, 5209, read-out: MIC value in μg/ml
[4] = Staphylococcus aureus, 3356, read-out: MIC value in μg/ml
[5] = Escherichia coli, 01, read-out: MIC value in μg/ml
[6] = Escherichia coli, 04, read-out: MIC value in μg/ml
[7] = Staphylococcus aureus, 13709, read-out: MIC value in μg/ml
[8] = Staphylococcus albus, 3348, read-out: MIC value in μg/ml
[9] = K8, read-out: MIC value in μg/ml
[10] = Proteus mirabilis, 2311, read-out: MIC value in μg/ml
[11] = Proteus mirabilis, 682, read-out: MIC value in μg/ml
[12] = Staphylococcus albus, 3578, read-out: MIC value in μg/ml
[13] = Proteus mirabilis, 2255, read-out: MIC value in μg/ml
[14] = Proteus vulgaris, 17028, read-out: MIC value in μg/ml
[15] = Proteus vulgaris, 16868, read-out: MIC value in μg/ml
[16] = Streptococcus pyogenes, 12384, read-out: MIC value in μg/ml
[17] = Morganella morganii, 69, read-out: MIC value in μg/ml
[18] = Morganella morganii, 18, read-out: MIC value in μg/ml
[19] = Staphylococcus aureus, 3349, read-out: MIC value in μg/ml
[20] = 209P, read-out: MIC value in μg/ml

SMILES: CCOP(=O)(OCC)ON=C(C(=O)NC1C(=O)N2C(C(=O)O)=C(COC(C)=O)CSC12)c1csc(N)n1 (stereo not drawn) [ES 643, 7β-[2-(2-Aminothiazol-4-yl)-2-diethylphosphoryloxyiminoacetamido] cephalosporanic acid]
MIC (K. edwardsii K1; read-out: MIC value in μg/ml): 0.8 µg/mL (≈ 1.39 µM) | MIC (S. pyogenes 12334; [1]): < 0.1 µg/mL | MIC (S. albus 12228; [2]): 1.6 µg/mL (≈ 2.77 µM) | MIC (P. vulgaris 5209; [3]): 0.8 µg/mL (≈ 1.39 µM) | MIC (S. aureus 3356; [4]): 1.6 µg/mL (≈ 2.77 µM) | MIC (E. coli 01; [5]): 0.2 µg/mL (≈ 0.346 µM) | MIC (E. coli 04; [6]): 0.8 µg/mL (≈ 1.39 µM) | MIC (S. aureus 13709; [7]): 3.1 µg/mL (≈ 5.37 µM) | MIC (S. albus 3348; [8]): 0.8 µg/mL (≈ 1.39 µM) | MIC (K. pneumoniae K8; [9]): 1.6 µg/mL (≈ 2.77 µM) | MIC (P. mirabilis 2311; [10]): < 0.1 µg/mL | MIC (P. mirabilis 682; [11]): < 0.1 µg/mL | MIC (S. albus 3578; [12]): 1.6 µg/mL (≈ 2.77 µM) | MIC (P. mirabilis 2255; [13]): < 0.1 µg/mL | MIC (P. vulgaris 17028; [14]): 0.2 µg/mL (≈ 0.346 µM) | MIC (P. vulgaris 16868; [15]): 0.2 µg/mL (≈ 0.346 µM) | MIC (S. pyogenes 12384; [16]): < 0.1 µg/mL | MIC (P. morganii 69; [17]): 0.2 µg/mL (≈ 0.346 µM) | MIC (P. morganii 18; [18]): 1.6 µg/mL (≈ 2.77 µM) | MIC (S. aureus 3349; [19]): 1.6 µg/mL (≈ 2.77 µM) | MIC (S. aureus 209P; [20]): 3.1 µg/mL (≈ 5.37 µM)

MIC (K. edwardsii K1; K. edwardsii K1, read-out: MIC value): 1.6 µg/mL (≈ 2.43 µM) | MIC (S. pyogenes 12334; Streptococcus pyogenes, S. pyogenes 12334, read-out: MIC value): < 0.1 µg/mL | MIC (S. albus 12228; Staphylococcus albus, S. albus 12228, read-out: MIC value): 0.2 µg/mL (≈ 0.303 µM) | MIC (P. vulgaris 5209; Proteus vulgaris, P. vulgaris 5209, read-out: MIC value): 50 µg/mL (≈ 75.8 µM) | MIC (S. aureus 3356; Staphylococcus aureus, S. aureus 3356*, penicillin-resistant strain, read-out: MIC value): 0.2 µg/mL (≈ 0.303 µM) | MIC (E. coli 01; Escherichia coli, E. coli 01, read-out: MIC value): < 0.1 µg/mL | MIC (E. coli 04; Escherichia coli, E. coli 04, read-out: MIC value): 0.2 µg/mL (≈ 0.303 µM) | MIC (S. aureus 13709; Staphylococcus aureus, S. aureus 13709, read-out: MIC value): 0.2 µg/mL (≈ 0.303 µM) | MIC (S. albus 3348; Staphylococcus albus, S. albus 3348, read-out: MIC value): 0.2 µg/mL (≈ 0.303 µM) | MIC (K. pneumoniae K8; K. pneumoniae K8, read-out: MIC value): 0.4 µg/mL (≈ 0.606 µM) | MIC (P. mirabilis 2311; Proteus mirabilis, P. mirabilis 2311, read-out: MIC value): 0.2 µg/mL (≈ 0.303 µM) | MIC (P. mirabilis 682; Proteus mirabilis, P. mirabilis 682, read-out: MIC value): < 0.1 µg/mL | MIC (S. albus 3578; Staphylococcus albus, S. albus 3578, read-out: MIC value): 0.2 µg/mL (≈ 0.303 µM) | MIC (P. mirabilis 2255; Proteus mirabilis, P. mirabilis 2255, read-out: MIC value): 0.2 µg/mL (≈ 0.303 µM) | MIC (P. vulgaris 17028; Proteus vulgaris, P. vulgaris 17028, read-out: MIC value): 25 µg/mL (≈ 37.9 µM) | MIC (P. vulgaris 16868; Proteus vulgaris, P. vulgaris 16868, read-out: MIC value): 12.5 µg/mL (≈ 18.9 µM) | MIC (S. pyogenes 12384; Streptococcus pyogenes, S. pyogenes 12384, read-out: MIC value): < 0.1 µg/mL | MIC (P. morganii 69; Morganella morganii, P. morganii 69, read-out: MIC value): 3.1 µg/mL (≈ 4.7 µM) | MIC (P. morganii 18; Morganella morganii, P. morganii 18, read-out: MIC value): 1.6 µg/mL (≈ 2.43 µM) | MIC (S. aureus 3349; Staphylococcus aureus, S. aureus 3349*, penicillin-resistant strain, read-out: MIC value): 0.4 µg/mL (≈ 0.606 µM) | MIC (S. aureus 209P; S. aureus 209P, read-out: MIC value): 0.2 µg/mL (≈ 0.303 µM)
SMILES: CC(=O)OCC1=C(C(=O)O)N2C(=O)C(NC(=O)C(=NOP(=O)(N3CCOCC3)N3CCOCC3)c3csc(N)n3)C2SC1 (stereo not drawn) [ES 656, 7β-[2-(2-amino-thiazol-4-yl)-2-dimorpholinophosphoryloxyiminoacetamido] cephalosporanic acid]

SMILES: COP(=O)(OC)ON=C(C(=O)NC1C(=O)N2C(C(=O)O)=C(COC(C)=O)CSC12)c1csc(N)n1 (stereo not drawn) [ES 671, 7β-[2-(2-amino-thiazol-4-yl)-2-dimethylphosphoryloxyiminoacetamido] cephalosporanic acid]
MIC (K. edwardsii K1; read-out: MIC value in μg/ml): 0.2 µg/mL (≈ 0.364 µM) | MIC (S. pyogenes 12334; [1]): < 0.1 µg/mL | MIC (S. albus 12228; [2]): 0.4 µg/mL (≈ 0.728 µM) | MIC (P. vulgaris 5209; [3]): 0.2 µg/mL (≈ 0.364 µM) | MIC (S. aureus 3356; [4]): 1.6 µg/mL (≈ 2.91 µM) | MIC (E. coli 01; [5]): 0.2 µg/mL (≈ 0.364 µM) | MIC (E. coli 04; [6]): 0.4 µg/mL (≈ 0.728 µM) | MIC (S. aureus 13709; [7]): 1.6 µg/mL (≈ 2.91 µM) | MIC (S. albus 3348; [8]): 0.8 µg/mL (≈ 1.46 µM) | MIC (K. pneumoniae K8; [9]): 0.4 µg/mL (≈ 0.728 µM) | MIC (P. mirabilis 2311; [10]): < 0.1 µg/mL | MIC (P. mirabilis 682; [11]): < 0.1 µg/mL | MIC (S. albus 3578; [12]): 0.8 µg/mL (≈ 1.46 µM) | MIC (P. mirabilis 2255; [13]): 0.1 µg/mL (≈ 0.182 µM) | MIC (P. vulgaris 17028; [14]): < 0.1 µg/mL | MIC (P. vulgaris 16868; [15]): < 0.1 µg/mL | MIC (S. pyogenes 12384; [16]): < 0.1 µg/mL | MIC (P. morganii 69; [17]): 0.4 µg/mL (≈ 0.728 µM) | MIC (P. morganii 18; [18]): < 0.1 µg/mL | MIC (S. aureus 3349; [19]): 1.6 µg/mL (≈ 2.91 µM) | MIC (S. aureus 209P; [20]): 3.1 µg/mL (≈ 5.64 µM)

SMILES: COP(=O)(O)ON=C(C(=O)NC1C(=O)N2C(C(=O)O)=C(COC(C)=O)CSC12)c1csc(N)n1 (stereo not shown) [Example 8b]
MIC (P. vulgaris ATCC 6897): 0.2 µg/mL (≈ 0.374 µM)
